Source: BindingDB's records for doi:10.1016/j.bmcl.2004.02.040 (Ewha Womans University, 2004)

Target: cGMP-specific 3',5'-cyclic phosphodiesterase PDE5 (Oryctolagus cuniculus)
Assay: Inhibition of phosphodiesterase 5 of rabbit platelets

IC50: 0.29 nM
Compound: CCCOc1ccc(S(=O)(=O)N2CCC(CCP(=O)(O)OCC)CC2)cc1-c1nc2c(CCC)nn(C)c2c(=O)[nH]1 [(2-{1-[3-(1-Methyl-7-oxo-3-propyl-6,7-dihydro-1H-pyrazolo[4,3-d]pyrimidin-5-yl)-4-propoxy-benzenesulfonyl]-piperidin-4-yl}-ethyl)-phosphonic acid monoethyl ester]
